Test results published in ChEMBL document CHEMBL5543097, “Synthesis and structure-activity relationships of novel 14-membered 2-fluoro ketolides with structural modification at the C11 position” (Eur J Med Chem, 2024).
Values after ≈ are worked out from the molar mass of the structure shown.

Key:
[1] = tested on: Streptococcus pyogenes; experiment: Antibacterial activity against erythromycin-resistant Streptococcus pyogenes ATCC 19615 assessed as inhibition of visible bacterial growth incubated for 18 hrs by broth microdilution method; type: functional
[2] = tested on: Streptococcus agalactiae; experiment: Antibacterial activity against erythromycin-resistant Streptococcus agalactiae 19-9 assessed as inhibition of visible bacterial growth incubated for 18 hrs by broth microdilution method; type: functional
[3] = tested on: Streptococcus agalactiae; experiment: Antibacterial activity against erythromycin-resistant Streptococcus agalactiae 19-8 assessed as inhibition of visible bacterial growth incubated for 18 hrs by broth microdilution method; type: functional
[4] = tested on: Streptococcus pneumoniae; experiment: Antibacterial activity against erythromycin-resistant Streptococcus pneumoniae SPN19-14 assessed as inhibition of visible bacterial growth incubated for 18 hrs by broth microdilution method; type: functional
[5] = tested on: Streptococcus pneumoniae; experiment: Antibacterial activity against erythromycin-resistant Streptococcus pneumoniae SPN19-13 assessed as inhibition of visible bacterial growth incubated for 18 hrs by broth microdilution method; type: functional
[6] = tested on: Streptococcus pneumoniae; experiment: Antibacterial activity against erythromycin-resistant Streptococcus pneumoniae SPN19-8 assessed as inhibition of visible bacterial growth incubated for 18 hrs by broth microdilution method; type: functional
[7] = tested on: Staphylococcus epidermidis; experiment: Antibacterial activity against erythromycin-resistant Staphylococcus epidermidis 19-11 assessed as inhibition of visible bacterial growth incubated for 18 hrs by broth microdilution method; type: functional
[8] = tested on: Staphylococcus epidermidis; experiment: Antibacterial activity against erythromycin-resistant Staphylococcus epidermidis 19-9 assessed as inhibition of visible bacterial growth incubated for 18 hrs by broth microdilution method; type: functional
[9] = tested on: Staphylococcus epidermidis; experiment: Antibacterial activity against erythromycin-resistant Staphylococcus epidermidis 19-8 assessed as inhibition of visible bacterial growth incubated for 18 hrs by broth microdilution method; type: functional
[10] = tested on: Staphylococcus epidermidis; experiment: Antibacterial activity against erythromycin-resistant Staphylococcus epidermidis 19-6 assessed as inhibition of visible bacterial growth incubated for 18 hrs by broth microdilution method; type: functional
[11] = tested on: Staphylococcus epidermidis; experiment: Antibacterial activity against erythromycin-resistant Staphylococcus epidermidis 19-4 assessed as inhibition of visible bacterial growth incubated for 18 hrs by broth microdilution method; type: functional
[12] = tested on: Staphylococcus epidermidis; experiment: Antibacterial activity against erythromycin-resistant Staphylococcus epidermidis 19-5 assessed as inhibition of visible bacterial growth incubated for 18 hrs by broth microdilution method; type: functional
[13] = tested on: Moraxella catarrhalis; experiment: Antibacterial activity against Moraxella catarrhalis BCA 19-5 assessed as inhibition of bacterial growth incubated for 24 hrs by CLSI based broth microdilution method; type: functional; settings: Moraxella catarrhalis, BCA 19-5, 24 h, read-out: MIC
[14] = tested on: Moraxella catarrhalis; experiment: Antibacterial activity against Moraxella catarrhalis BCA 19-6 assessed as inhibition of bacterial growth incubated for 24 hrs by CLSI based broth microdilution method; type: functional; settings: Moraxella catarrhalis, BCA 19-6, 24 h, read-out: MIC
[15] = tested on: Moraxella catarrhalis; experiment: Antibacterial activity against Moraxella catarrhalis BCA 19-31 assessed as inhibition of bacterial growth incubated for 24 hrs by CLSI based broth microdilution method; type: functional; settings: BCA 19-31, 24 h
[16] = tested on: Haemophilus influenzae; experiment: Antibacterial activity against Haemophilus influenzae HIN 19-15 assessed as inhibition of bacterial growth incubated for 20 to 24 hrs by CLSI based broth microdilution method; type: functional; settings: time 20-24 hrs
[17] = tested on: Haemophilus influenzae; experiment: Antibacterial activity against Haemophilus influenzae HIN 19-18 assessed as inhibition of bacterial growth incubated for 20 to 24 hrs by CLSI based broth microdilution method; type: functional; settings: HIN 19-18, time 20-24 hrs
[18] = Cytotoxicity against mouse AML12 cells assessed as reduction in cell viability incubated for 48 hrs by MTT assay; type: toxicity, cell-based
[19] = tested on: Haemophilus influenzae; experiment: Antibacterial activity against Haemophilus influenzae HIN 20-18 assessed as inhibition of bacterial growth incubated for 20 to 24 hrs by CLSI based broth microdilution method; type: functional; settings: time 20-24 hrs

Compound | MIC [1] [µg/mL] | MIC [2] [µg/mL] | MIC [3] [µg/mL] | MIC [4] [µg/mL] | MIC [5] [µg/mL] | MIC [6] [µg/mL] | MIC [7] [µg/mL] | MIC [8] [µg/mL] | MIC [9] [µg/mL] | MIC [10] [µg/mL] | MIC [11] [µg/mL] | MIC [12] [µg/mL] | MIC [13] [µg/mL] | MIC [14] [µg/mL] | MIC [15] [µg/mL] | MIC [16] [µg/mL] | MIC [17] [µg/mL] | CC50 at 48 h [18] [µM] | MIC [19] [µg/mL]
CC[C@H]1OC(=O)[C@H](C)C(=O)[C@H](C)[C@@H](O[C@@H]2O[C@H](C)C[C@H](N(C)C)[C@H]2O)[C@](C)(OC)C[C@@H](C)C(=O)[C@H](C)[C@H]2N(CCCOC(=O)Nc3cccc(C)c3)C(=O)O[C@]12C | < 0.03 | 0.5 (≈ 0.622 µM) | < 0.03 | 1 (≈ 1.24 µM) | 1 (≈ 1.24 µM) | 1 (≈ 1.24 µM) | 0.5 (≈ 0.622 µM) | 1 (≈ 1.24 µM) | 0.5 (≈ 0.622 µM) | 0.5 (≈ 0.622 µM) | 2 (≈ 2.49 µM) | 0.5 (≈ 0.622 µM) | 0.5 (≈ 0.622 µM) | 0.5 (≈ 0.622 µM) | 1 (≈ 1.24 µM) | 32 (≈ 39.8 µM) | 32 (≈ 39.8 µM) | 71.7 | 
CC[C@H]1OC(=O)[C@@](C)(F)C(=O)[C@H](C)[C@@H](O[C@@H]2O[C@H](C)C[C@H](N(C)C)[C@H]2O)[C@](C)(OC)C[C@@H](C)C(=O)[C@H](C)[C@H]2N(CCCOC(=O)Nc3cccc(Cl)c3)C(=O)O[C@]12C | < 0.03 | 0.5 (≈ 0.594 µM) |  | 0.125 (≈ 0.148 µM) | 0.125 (≈ 0.148 µM) | 0.125 (≈ 0.148 µM) | < 0.03 | 0.125 (≈ 0.148 µM) | < 0.03 | < 0.03 | 0.03 (≈ 0.0356 µM) | < 0.03 | 0.125 (≈ 0.148 µM) | 2.25 (≈ 2.67 µM) |  | 8 (≈ 9.5 µM) | 4 (≈ 4.75 µM) | 43.3 | 16 (≈ 19 µM)
CC[C@H]1OC(=O)[C@H](C)C(=O)[C@H](C)[C@@H](O[C@@H]2O[C@H](C)C[C@H](N(C)C)[C@H]2O)[C@](C)(OC)C[C@@H](C)C(=O)[C@H](C)[C@H]2N(CCCOC(=O)Nc3ccc(C)cc3)C(=O)O[C@]12C | < 0.03 | 1 (≈ 1.24 µM) | < 0.03 | 0.25 (≈ 0.311 µM) | 0.25 (≈ 0.311 µM) | 0.5 (≈ 0.622 µM) | 0.125 (≈ 0.155 µM) | 0.5 (≈ 0.622 µM) | < 0.03 | 0.125 (≈ 0.155 µM) | 0.125 (≈ 0.155 µM) | 0.125 (≈ 0.155 µM) | 0.125 (≈ 0.155 µM) | 0.25 (≈ 0.311 µM) | 1 (≈ 1.24 µM) | 32 (≈ 39.8 µM) | 32 (≈ 39.8 µM) | 20.8 | 
CC[C@H]1OC(=O)[C@@](C)(F)C(=O)[C@H](C)[C@@H](O[C@@H]2O[C@H](C)C[C@H](N(C)C)[C@H]2O)[C@](C)(OC)C[C@@H](C)C(=O)[C@H](C)[C@H]2N(CCCOC(=O)Nc3ccccc3OC)C(=O)O[C@]12C | < 0.03 | 0.5 (≈ 0.597 µM) | < 0.03 | 0.125 (≈ 0.149 µM) | 0.125 (≈ 0.149 µM) | 0.125 (≈ 0.149 µM) | 0.125 (≈ 0.149 µM) | 0.25 (≈ 0.298 µM) | 0.06 (≈ 0.0716 µM) | 0.125 (≈ 0.149 µM) | 0.06 (≈ 0.0716 µM) | 0.06 (≈ 0.0716 µM) | 11.1 (≈ 13.2 µM) | 0.41 (≈ 0.489 µM) | 0.125 (≈ 0.149 µM) | 8 (≈ 9.55 µM) |  | 83.8 | 
CC[C@H]1OC(=O)[C@H](C)C(=O)[C@H](C)[C@@H](O[C@@H]2O[C@H](C)C[C@H](N(C)C)[C@H]2O)[C@](C)(OC)C[C@@H](C)C(=O)[C@H](C)[C@H]2N(CCCOC(=O)Nc3ccc(C(F)(F)F)cc3)C(=O)O[C@]12C | < 0.03 | 0.5 (≈ 0.583 µM) | < 0.03 | 0.125 (≈ 0.146 µM) | 0.125 (≈ 0.146 µM) | 0.125 (≈ 0.146 µM) | 0.125 (≈ 0.146 µM) | 0.5 (≈ 0.583 µM) | 0.06 (≈ 0.0699 µM) | 0.25 (≈ 0.291 µM) | 0.125 (≈ 0.146 µM) | 0.06 (≈ 0.0699 µM) |  |  | 0.06 (≈ 0.0699 µM) | 4 (≈ 4.66 µM) |  | 73.8 | 
CC[C@H]1OC(=O)[C@@](C)(F)C(=O)[C@H](C)[C@@H](O[C@@H]2O[C@H](C)C[C@H](N(C)C)[C@H]2O)[C@](C)(OC)C[C@@H](C)C(=O)[C@H](C)[C@H]2N(CCCOC(=O)Nc3ccc(SC)cc3)C(=O)O[C@]12C | < 0.03 | 16 (≈ 18.7 µM) | 0.03 (≈ 0.0351 µM) | 0.25 (≈ 0.293 µM) | 0.25 (≈ 0.293 µM) | 1 (≈ 1.17 µM) | 0.125 (≈ 0.146 µM) | 0.25 (≈ 0.293 µM) | 0.125 (≈ 0.146 µM) | 0.125 (≈ 0.146 µM) | 0.125 (≈ 0.146 µM) | 0.125 (≈ 0.146 µM) | 0.5 (≈ 0.585 µM) | 0.5 (≈ 0.585 µM) | 0.125 (≈ 0.146 µM) | 16 (≈ 18.7 µM) | 8 (≈ 9.37 µM) | 76.1 | 
CC[C@H]1OC(=O)[C@@](C)(F)C(=O)[C@H](C)[C@@H](O[C@@H]2O[C@H](C)C[C@H](N(C)C)[C@H]2O)[C@](C)(OC)C[C@@H](C)C(=O)[C@H](C)[C@H]2N(CCCOC(=O)Nc3cc(C)oc3C(F)(F)F)C(=O)O[C@]12C |  |  |  |  |  |  |  |  |  |  |  |  | 0.5 (≈ 0.568 µM) | 0.5 (≈ 0.568 µM) | 0.5 (≈ 0.568 µM) | 0.5 (≈ 0.568 µM) | 4 (≈ 4.55 µM) | 35.9 | > 16
